Where a name gives a salt, the structure may show the parent alone.

Chain of human SPR (P35270 whole entry): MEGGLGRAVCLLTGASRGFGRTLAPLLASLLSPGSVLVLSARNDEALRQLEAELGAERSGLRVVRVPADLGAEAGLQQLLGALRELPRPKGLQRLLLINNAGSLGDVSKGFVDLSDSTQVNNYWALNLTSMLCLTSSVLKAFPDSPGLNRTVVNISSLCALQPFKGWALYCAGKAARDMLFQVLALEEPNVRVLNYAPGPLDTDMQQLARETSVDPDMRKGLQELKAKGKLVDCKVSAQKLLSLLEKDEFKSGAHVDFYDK

One assay concerns the target human SPR (Homo sapiens (Human), UniProt P35270). The assay is described as follows: Evaluation Example 2: Measurement of human SPR inhibitory activity (seven concentrations, sepiapterin absorbance at 420 nm). Particulars: Evaluation Example 2, seven concentrations 0.14 nM to 100 nM, 240 minutes at room temperature, read-out: IC50. The class given is biochemical. The procedure, abridged: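 Reactions ran 240 min at room temperature in 100 mM Tris-HCl pH 7.5 with 0.01% BSA. They contained tag-cleaved, E. coli-expressed full-length human SPR (diluted to 150 ng/mL), seven compound concentrations from 0.14 to 100 nM, and sepiapterin/NADPH added as a 120 μM/160 μM solution. Inhibition was calculated from sepiapterin absorbance at 420 nm.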
As to `CC(C)(C)Cn1c(=O)c(C(=O)NC2CC2)c(O)n2nc(C#N)cc12` [Synthesis Example 279, 2-Cyano-N-cyclopropyl-7-hydroxy-4-neopentyl-5-oxo-4,5-dihydropyrazolo[1,5-a]pyrimidine-6-carboxamide], the IC50 stood at 1760 pM.
On to `Cc1nn2c(O)c(C(=O)NC3CC3)c(=O)n(CC(C)(C)C)c2c1/C=C/C(=O)N1CCC[C@@H]1C(C)(C)O` [Synthesis Example 655, (R,E)-N-Cyclopropyl-7-hydroxy-3-(3-(2-(2-hydroxypropan-2-yl)pyrrolidin-1-yl)-3-oxoprop-1-en-1-yl)-2-methyl-4-neopentyl-5-oxo-4,5-dihydropyrazolo[1,5-a]pyrimidine-6-carboxamide], for which the IC50 stood at 1050 pM.
The same measure, in the same setting: to `CC(C)(C)Cn1c(=O)c(C(=O)NC2CC2)c(O)n2nc3c(c12)CN(C1CCOCC1)C(=O)N3` [Synthesis Example 405, N-Cyclopropyl-8-hydroxy-5-neopentyl-2,6-dioxo-3-(tetrahydro-2H-pyran-4-yl)-1,2,3,4,5,6-hexahydropyrazolo[1,5-a:3,4-d′]dipyrimidine-7-carboxamide] belongs 770 pM; to `CC(C)Cn1c(=O)c(C(=O)NC2CC2)c(O)n2ncc(/C=C/C(=O)N3CCC[C@@H]3C#N)c12` [compound 496, (R,E)-3-(3-(2-Cyanopyrrolidin-1-yl)-3-oxoprop-1-en-1-yl)-N-cyclopropyl-7-hydroxy-4-isobutyl-5-oxo-4,5-dihydropyrazolo[1,5-a]pyrimidine-6-carboxamide], 750 pM.
As to `Cc1nn2c(O)c(C(=O)NC3CC3)c(=O)n(CC3CCOCC3)c2c1/C=C/C(=O)N1CCOCC1` [compound 575, (E)-N-Cyclopropyl-7-hydroxy-2-methyl-3-(3-morpholino-3-oxoprop-1-en-1-yl)-5-oxo-4-((tetrahydro-2H-pyran-4-yl)methyl)-4,5-dihydropyrazolo[1,5-a]pyrimidine-6-carboxamide], the IC50 stood at 810 pM.
The same measure, in the same setting: then `C[C@@H](Nc1cc2n(CC(C)(C)C)c(=O)c(C(=O)NC3CC3)c(O)n2n1)c1ccccn1` [Synthesis Example 327, (R)-N-Cyclopropyl-7-hydroxy-4-neopentyl-5-oxo-2-((1-(pyridin-2-yl)ethyl)amino)-4,5-dihydropyrazolo[1,5-a]pyrimidine-6-carboxamide], with 2390 pM; and `CC(C)Cn1c(=O)c(C(=O)NC2CC2)c(O)n2ncc(/C=C/C(=O)N3C4CCC3COC4)c12` [compound 533, (E)-3-(3-(3-Oxa-8-azabicyclo[3.2.1]octan-8-yl)-3-oxoprop-1-en-1-yl)-N-cyclopropyl-7-hydroxy-4-isobutyl-5-oxo-4,5-dihydropyrazolo[1,5-a]pyrimidine-6-carboxamide], with 640 pM.
Same read-out and setting: to `CC(C)Cn1c(=O)c(C(=O)NC2CC2)c(O)n2ncc(C(=O)NCc3ccccn3)c12` [Synthesis Example 215, N6-Cyclopropyl-7-hydroxy-4-isobutyl-5-oxo-N3-(pyridin-2-ylmethyl)-4,5-dihydropyrazolo[1,5-a]pyrimidine-3,6-dicarboxamide] belongs 1040 pM; to `CC(C)(C)Cn1c(=O)c(C(=O)NC2CC2)c(O)n2nc(Nc3cnc(F)cn3)cc12` [Synthesis Example 322, N-Cyclopropyl-2-((5-fluoropyrazin-2-yl)amino)-7-hydroxy-4-neopentyl-5-oxo-4,5-dihydropyrazolo[1,5-a]pyrimidine-6-carboxamide], 980 pM; to `Cc1cnc(CNC(=O)c2cnn3c(O)c(C(=O)NC4CC4)c(=O)n(CC(C)C)c23)cn1` [Synthesis Example 224, N6-Cyclopropyl-7-hydroxy-4-isobutyl-N3-((5-methylpyrazin-2-yl)methyl)-5-oxo-4,5-dihydropyrazolo[1,5-a]pyrimidine-3,6-dicarboxamide], 780 pM.
Regarding `Cn1ccc(Nc2cc3n(CC(C)(C)C)c(=O)c(C(=O)NC4CC4)c(O)n3n2)n1` [Synthesis Example 346, N-Cyclopropyl-7-hydroxy-2-((1-methyl-1H-pyrazol-3-yl)amino)-4-neopentyl-5-oxo-4,5-dihydropyrazolo[1,5-a]pyrimidine-6-carboxamide], the IC50 stood at 1770 pM.
With `Cc1nn2c(O)c(C(=O)NC3CC3)c(=O)n(CC(C)C)c2c1/C=C/C(=O)N1CCOc2ncccc21` [Synthesis Example 676, (E)-N-Cyclopropyl-3-(3-(2,3-dihydro-1H-pyrido[2,3-b][1,4]oxazin-1-yl)-3-oxoprop-1-en-1-yl)-7-hydroxy-4-isobutyl-2-methyl-5-oxo-4,5-dihydropyrazolo[1,5-a]pyrimidine-6-carboxamide], the IC50 came to 910 pM.
Turning to `C[C@H](Nc1cc2n(CC(C)(C)C)c(=O)c(C(=O)NC3CC3)c(O)n2n1)c1ccccn1` [Synthesis Example 326, (S)-N-Cyclopropyl-7-hydroxy-4-neopentyl-5-oxo-2-((1-(pyridin-2-yl)ethyl)amino)-4,5-dihydropyrazolo[1,5-a]pyrimidine-6-carboxamide], the IC50 stood at 1960 pM.
Turning to `CC(C)Cn1c(=O)c(C(=O)NC2CC2)c(O)n2ncc(C3=CCCNC3)c12` [Synthesis Example 239, N-Cyclopropyl-7-hydroxy-4-isobutyl-5-oxo-3-(1,2,5,6-tetrahydropyridin-3-yl)-4,5-dihydropyrazolo[1,5-a]pyrimidine-6-carboxamide hydrochloride], the IC50 is 720 pM.
On to `Nc1nn2c(O)c(C(=O)NC3CC3)c(=O)n(CC3CCOCC3)c2c1/C=C/C1CCOCC1` [Synthesis Example 443, (E)-2-Amino-N-cyclopropyl-7-hydroxy-5-oxo-4-((tetrahydro-2H-pyran-4-yl)methyl)-3-(2-(tetrahydro-2H-pyran-4-yl)vinyl)-4,5-dihydropyrazolo[1,5-a]pyrimidine-6-carboxamide hydrochloride], for which the IC50 was 650 pM.
`Cc1nn2c(O)c(C(=O)NC3CC3)c(=O)n(CC(C)C)c2c1/C=C/C(=O)N1CCc2cc(Br)ccc21` [Synthesis Example 670, (E)-3-(3-(5-Bromoindolin-1-yl)-3-oxoprop-1-en-1-yl)-N-cyclopropyl-7-hydroxy-4-isobutyl-2-methyl-5-oxo-4,5-dihydropyrazolo[1,5-a]pyrimidine-6-carboxamide]: the IC50 was 11500 pM.
As for `O=C(NC1CC1)c1c(O)n2nc(Nc3cnccn3)cc2n(CC2CCOCC2)c1=O` [Synthesis Example 350, N-Cyclopropyl-7-hydroxy-5-oxo-2-(pyrazin-2-ylamino)-4-((tetrahydro-2H-pyran-4-yl)methyl)-4,5-dihydropyrazolo[1,5-a]pyrimidine-6-carboxamide], the IC50 came out at 750 pM.
Regarding `CC(C)/C=C/c1c(N)nn2c(O)c(C(=O)NC3CC3)c(=O)n(CC(C)(C)C)c12` [Synthesis Example 442, (E)-2-Amino-N-cyclopropyl-7-hydroxy-3-(3-methylbut-1-en-1-yl)-4-neopentyl-5-oxo-4,5-dihydropyrazolo[1,5-a]pyrimidine-6-carboxamide hydrochloride], the IC50 amounted to 1530 pM.
Same read-out and setting: then `CC(C)(Cn1c(=O)c(C(=O)NC2CC2)c(O)n2nc(C(N)=O)cc12)C(F)(F)F` [Synthesis Example 277, N6-Cyclopropyl-7-hydroxy-5-oxo-4-(3,3,3-trifluoro-2,2-dimethylpropyl)-4,5-dihydropyrazolo[1,5-a]pyrimidine-2,6-dicarboxamide], with 820 pM; and `COC[C@H]1COCCN1C(=O)/C=C/c1cnn2c(O)c(C(=O)NC3CC3)c(=O)n(CC3(C)CC3)c12` [Synthesis Example 371, (S,E)-N-Cyclopropyl-7-hydroxy-3-(3-(3-(methoxymethyl)morpholino)-3-oxoprop-1-en-1-yl)-4-((1-methylcyclopropyl)methyl)-5-oxo-4,5-dihydropyrazolo[1,5-a]pyrimidine-6-carboxamide], with 610 pM.
Same read-out and setting: to `Cc1nn2c(O)c(C(=O)NC3CC3)c(=O)n(CC(C)C)c2c1/C=C/C(=O)N1CCCC1` [compound 564, (E)-N-Cyclopropyl-7-hydroxy-4-isobutyl-2-methyl-5-oxo-3-(3-oxo-3-(pyrrolidin-1-yl)prop-1-en-1-yl)-4,5-dihydropyrazolo[1,5-a]pyrimidine-6-carboxamide] belongs 950 pM; to `Cc1nn2c(O)c(C(=O)NC3CC3)c(=O)n(CC(C)C)c2c1/C=C/C(=O)N1CCC(F)(F)CC1C` (stereo not shown) [Synthesis Example 672, (E)-N-Cyclopropyl-3-(3-(4,4-difluoro-2-methylpiperidin-1-yl)-3-oxoprop-1-en-1-yl)-7-hydroxy-4-isobutyl-2-methyl-5-oxo-4,5-dihydropyrazolo[1,5-a]pyrimidine-6-carboxamide], 860 pM.
As to `C/C(=C\c1cnn2c(O)c(C(=O)NC3CC3)c(=O)n(CC(C)C)c12)C(=O)N1CCC(F)(F)C1` [Synthesis Example 256, (E)-N-Cyclopropyl-3-(3-(3,3-difluoropyrrolidin-1-yl)-2-methyl-3-oxoprop-1-en-1-yl)-7-hydroxy-4-isobutyl-5-oxo-4,5-dihydropyrazolo[1,5-a]pyrimidine-6-carboxamide], the IC50 is 970 pM.
The same measure, in the same setting: to `CC(C)Cn1c(=O)c(C(=O)NC2CC2)c(O)n2ncc(/C=C/C(=O)N3CCC(C(C)(F)F)CC3)c12` [compound 469] belongs 890 pM.

The same assay, now with this note: sepiapterin absorbance, Table 41, read-out: concentration at 50% inhibition of human SPR (IC50).
Turning to `CC(C)Cn1c(=O)c(C(=O)NC2CC2)c(O)n2ncc(/C=C/C(=O)N3CCOc4ccccc43)c12` [Synthesis Example 739, (E)-N-Cyclopropyl-3-(3-(2,3-dihydro-4H-benz[b][1,4]oxazin-4-yl)-3-oxoprop-1-en-1-yl)-7-hydroxy-4-isobutyl-5-oxo-4,5-dihydropyrazolo[1,5-a]pyrimidine-6-carboxamide], the IC50 turned out to be 1540 pM.
